Our source for the RP-LC retention time values is the METLIN SMRT retention time set (Domingo-Almenara et al. 2019).

Each structure is given as a SMILES string.

This data set is described as follows: gradient 5% acetonitrile 3 min, to 50% in 2 min, to 85% in 15 min, held 3 min, 100 µL/min. As to conditions: column: Zorbax Extend-C18 2.1 x 50 mm; eluents: water / acetonitrile, 0.1% formic acid. Put shortly:
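The mobile phases were water and acetonitrile, each with 0.1% formic acid, pumped at 100 μL/min through a Zorbax Extend-C18 column (2.1 × 50 mm, 1.8 μm). Pure standards were injected as mixtures of ~100 molecules and detected by a quadrupole time-of-flight mass spectrometer in positive and negative ionization mode. Retention time came from computationally picked adduct peaks, each inspected by hand.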
In the case of `COc1ccc(NC(=O)C2CCN(S(=O)(=O)c3cn(C)cn3)CC2)c(OC)c1`, the RP-LC retention time turned out to be 666 s.

For `Cc1nn(CC(=O)N2CCN(c3ccccn3)CC2)c(=O)c2c1sc1ccccc12`, the RP-LC retention time came out at 640 s.

Compound `Cc1ccc(Cl)cc1NC(=O)C1CCCN1S(=O)(=O)c1cc2c(cc1C)NC(=O)CO2` (stereo not given) returned an RP-LC retention time of 842 s.

Consider `Cn1cc(S(=O)(=O)N2CCC(C(=O)Nc3ccccn3)CC2)cc1C(=O)N1CCCC1`, for which the RP-LC retention time was determined as 635 s.

In turn, `COc1ccc(-c2noc(C3CCCN3C(=O)NC3CCCCC3)n2)cc1` (stereo not given) came in with an RP-LC retention time of 948 s.

Take `Cc1nc(CCNS(=O)(=O)c2ccc(Cl)c(C)c2)no1`: the RP-LC retention time turned out to be 812 s.

Regarding `Cc1nc(-c2ccccc2)nn1C1CCN(S(=O)(=O)c2cccnc2)C1` (stereo not given), the RP-LC retention time worked out at 716 s.

The compound `COc1cc([C@@H]2c3cc4c(cc3[C@H](O)[C@@H](CO)[C@@H]2C(=O)NCc2ccc3c(c2)OCO3)OCO4)cc(OC)c1OC` yielded an RP-LC retention time of 709 s.

`O=C(NCC(O)c1ccsc1)Nc1cccc(Cl)c1` (stereo not given) registered an RP-LC retention time of 734 s.

As to `O=C(c1ccc(F)cc1)N1CCC(n2c(-c3ccco3)nc3cccnc32)C1` (stereo not given), the RP-LC retention time was 689 s.

For `Cc1ccc(NC(=O)N2CCN(CCn3cnc4cccnc43)CC2)cc1Cl`, the RP-LC retention time was determined as 636 s.

For `Cc1ccc(-c2nc3ccccn3c2Nc2ccc(F)cc2)cc1`, the RP-LC retention time is 717 s.

The compound `O=C(CCc1ccccc1)N1CCc2cc(-c3ccno3)ccc21` gave an RP-LC retention time of 1020 s.

Take `Cc1ccccc1-c1noc(-c2cccn(CC(=O)N3CCCC3)c2=O)n1`: the RP-LC retention time worked out at 750 s.

In turn, `Cc1nc(-c2csc(S(=O)(=O)N3CCCC(C(=O)Nc4cccc5c4CCCC5)C3)c2)no1` (stereo not given) returned an RP-LC retention time of 1110 s.

Compound `Cc1ccccc1CC(=O)Nc1cc(-c2cccs2)no1` returned an RP-LC retention time of 969 s.

In the case of `Cc1cccc(NC(=O)c2ccc(=O)n(Cc3ccc(F)cc3)n2)n1`, the RP-LC retention time stood at 800 s.

Regarding `CCOc1ccccc1-c1nc(Cc2noc(-c3cccnc3)n2)c(C)o1`, the RP-LC retention time was found to be 894 s.

Turning to `Cc1cc(C(F)(F)F)nc(Nc2nc(C)c3ccccc3n2)n1`, the RP-LC retention time was determined as 679 s.

`O=S(=O)(c1ccccc1F)N1CC(c2nc(Cc3ccccc3)no2)C1` displayed an RP-LC retention time of 976 s.

As to `Cc1noc(C)c1CCNC(=O)c1cn2ccccc2n1`, the RP-LC retention time came out at 593 s.

In turn, `CCN(CC)S(=O)(=O)c1ccc2c(c1)N(CC(=O)NCCc1cnc[nH]1)C(=O)C1CCCCN21` (stereo not given) returned an RP-LC retention time of 655 s.

Turning to `Cc1ccc(Nc2c(-c3cccc(O)c3)nc3cnccn23)c(C)c1`, the RP-LC retention time is 750 s.

Turning to `O=C(NCc1ccccc1)c1c(O)c2cccnc2[nH]c1=O`, the RP-LC retention time stood at 913 s.

Take `Cc1ncoc1C(=O)N1CCC(N2C(=O)C(OCC3CC3)C23CCOCC3)CC1` (stereo not given): the RP-LC retention time was 634 s.

In turn, `CC1CCN(S(=O)(=O)c2ccc(-c3nnc(C(=O)NC(C)C)o3)cc2)CC1` yielded an RP-LC retention time of 934 s.

Turning to `Cc1ccc(CNC(=O)c2ccc(CN3CCN(C4CCCC4)C(=O)C3=O)cc2)cc1C`, the RP-LC retention time came out at 834 s.

Turning to `COc1ccccc1-c1coc2cc(OC(=O)c3cccs3)ccc2c1=O`, the RP-LC retention time worked out at 992 s.

The compound `c1cc(N2CCCCCC2)ncc1-c1noc(CN2CCCC2)n1` showed an RP-LC retention time of 586 s.

For `COCCN1CCC(N2CCCN(S(=O)(=O)c3ccc(C)cc3)CC2)C1=O` (stereo not given), the RP-LC retention time turned out to be 591 s.

`Cc1[nH]c2ccccc2c1C(=O)CSc1n[nH]c(N)n1` came in with an RP-LC retention time of 567 s.

Regarding `Cc1nc(-c2ccc3c(c2)CCN3C(=O)c2cccc(C#N)c2)cs1`, the RP-LC retention time came out at 906 s.

On to `Cc1ccc(C(=O)Nc2ccc(-c3nc(Cn4cccn4)c(C)o3)cc2)s1`, for which the RP-LC retention time amounted to 890 s.

Take `Cc1cc(C(=O)NCc2ccsc2)no1`: the RP-LC retention time amounted to 700 s.

`COc1ccc(N2CCN(C(=O)c3sc4cccc(F)c4c3OC)CC2)cc1` gave an RP-LC retention time of 998 s.

For the compound `O=C(c1ccc(Nc2nc3ccccc3n3nnnc23)cc1)N1CCN(c2ccccn2)CC1`, the RP-LC retention time amounted to 661 s.

As to `O=C(Cc1ccc(NC(=O)C2CC2)cc1)NCc1cccs1`, the RP-LC retention time worked out at 659 s.

Take `O=C(NC1CC1)[C@@H]1C[C@H](Oc2ccccc2)CN1C(=O)COc1ccc(F)cc1`: the RP-LC retention time was determined as 813 s.

`O=C(Cn1nc2c(cc1=O)CCCCC2)Nc1nc(-c2ccccn2)cs1` returned an RP-LC retention time of 655 s.

In turn, `Cc1ccc(N2CCN(C(=O)C3CCCN(c4cnc5nccnc5c4)C3)CC2)cc1` (stereo not given) yielded an RP-LC retention time of 754 s.

Regarding `COc1cc(C(=O)Nc2nc(-c3ccc4c(c3)N(C)C(=O)CO4)c(C)s2)cc(OC)c1OC`, the RP-LC retention time turned out to be 964 s.

On to `COc1ccc(-c2c(NC(=O)c3ccco3)oc3c(C)cccc3c2=O)cc1OC`, for which the RP-LC retention time was determined as 747 s.

Regarding `CN(Cc1cccnc1Oc1ccccc1)C(=O)c1cnccn1`, the RP-LC retention time was 691 s.

`CCOc1ccc2cccc(NC(=O)c3ccc(S(=O)(=O)N(C)C)cc3)c2n1`: the RP-LC retention time was 1140 s.

`Cc1ccc(C(=O)C2=C(O)C(=O)N(c3ncccn3)C2c2cccc(Cl)c2)o1` (stereo not given): the RP-LC retention time was found to be 732 s.

In turn, `O=C(NCc1nc2ccccc2[nH]1)c1ccc(OCC(=O)C2CC2)cc1` displayed an RP-LC retention time of 561 s.

`CCC(=O)NCc1nc2c(n1C)CN(S(=O)(=O)c1cccc(C(F)(F)F)c1)CC2` displayed an RP-LC retention time of 591 s.

For the compound `Cc1cc(C)c(NC(=O)C2CCCN(c3nnc(C)c4c(C)n(-c5ccccc5)nc34)C2)c(C)c1` (stereo not given), the RP-LC retention time amounted to 769 s.

With `Cc1cccc(Cn2c(=O)n(CCNC(=O)CC(C)(C)C)c3ncccc32)c1`, the RP-LC retention time was determined as 864 s.

Regarding `O=C(Cc1nnc(-c2cccc(F)c2)o1)NCC1CC1`, the RP-LC retention time amounted to 722 s.

In turn, `COc1ccc(CNC(=O)c2sc(-c3cn(C(C)C)c4ncccc34)nc2C)cc1` returned an RP-LC retention time of 1030 s.

In the case of `CCNC(=O)C1CCN(S(=O)(=O)c2cc(-c3noc(CC)n3)cs2)CC1`, the RP-LC retention time was 767 s.

The compound `CCCN1CCn2cc(S(=O)(=O)Nc3cccc(C)c3)cc2C1=O` had an RP-LC retention time of 777 s.

In turn, `CCc1ccc(NC(=O)N2CCC(n3cnnc3C3CC3)C2)cc1` (stereo not given) gave an RP-LC retention time of 665 s.

As to `CCn1nccc1-c1cccc(-c2noc(-c3ccc(C#N)cc3)n2)c1`, the RP-LC retention time worked out at 1140 s.

For `CCN(CC)CCCNC(=O)c1c(-c2ccc(Br)s2)noc1C`, the RP-LC retention time came out at 652 s.

As to `Cc1nnc2ccc(-c3noc(Cc4ccc(Cl)cc4)n3)cn12`, the RP-LC retention time was found to be 868 s.

For `CCOc1ccc(C(=O)NC2CCN(c3cc(-c4cccs4)[nH]n3)C2)cc1` (stereo not given), the RP-LC retention time was found to be 658 s.

For `O=C1CC(c2ccccc2Cl)Cc2nc(N3CCN(Cc4ccc5c(c4)OCO5)CC3)ncc21` (stereo not given), the RP-LC retention time was found to be 765 s.

`CCOC(=O)CSc1nnc(-c2nnc(SCC(=O)OCC)n2CC)n1CC` had an RP-LC retention time of 758 s.

Regarding `Cc1cccc(NC(=O)N2CCN(c3nc4ccccc4nc3C(F)(F)F)CC2)c1C`, the RP-LC retention time amounted to 1100 s.

`CC(NC(=O)C1CCN(C(=O)c2ncn3c2COC(c2ccc(F)cc2)C3)CC1)c1ccc(F)cc1` (stereo not given) displayed an RP-LC retention time of 790 s.

As for `O=C(Cn1ccc2ccccc21)NCCn1nc(-n2ccnc2)ccc1=O`, the RP-LC retention time was found to be 546 s.

Turning to `CC(C)c1nnc2n1CCN(C(=O)CCC1CCCC1)C2`, the RP-LC retention time was found to be 714 s.

For the compound `COc1ccc(OC)c(C2CCN(C(=O)c3nc(-c4oc5c(C)cccc5c4C)no3)C2)c1` (stereo not given), the RP-LC retention time worked out at 1310 s.

As for `CCN(CC)CCNC(=O)CN1C(=O)C2CCCCN2c2ccc(C(=O)N(C)C)cc21` (stereo not given), the RP-LC retention time amounted to 601 s.

`N#CCc1cnc2ccccc2n1` had an RP-LC retention time of 720 s.

On to `COc1ccc(Nc2c(-c3ccc(N(C)C)cc3)nc3ncccn23)cc1`, for which the RP-LC retention time came to 684 s.

Turning to `CCOc1ccc(CCNC(=O)c2cc3sc(Cl)cc3n2CC)cc1OCC`, the RP-LC retention time stood at 1200 s.

Consider `Cc1ccc(C)c(NC(=O)CN2CCC(c3nc(-c4cccs4)no3)CC2)c1`, for which the RP-LC retention time was 724 s.

For `C=CCn1c(C)c(CC(=O)NCCOC)c(=O)n2nc(-c3ccccc3)nc12`, the RP-LC retention time turned out to be 673 s.

For `CCn1cc(-c2ccc(F)cc2)cc1C(=O)NCC1CCCO1` (stereo not given), the RP-LC retention time was 909 s.

`COc1ccc(C2Cn3nnc(-c4nc(-c5cccc(Br)c5)no4)c3CO2)cc1` (stereo not given) gave an RP-LC retention time of 1170 s.

In turn, `Cc1ccc2nc(C(=O)NCc3ccc(Cl)cc3)cn2c1` returned an RP-LC retention time of 718 s.

`CCOC(=O)c1c(C)[nH]c(C(=O)N2CCCC(C(=O)NCc3cccc(C)c3)C2)c1C` (stereo not given) yielded an RP-LC retention time of 863 s.

In turn, `CCOc1ccc(NC(=O)Cn2c(N3CCOCC3)nc3cc(C)n(C)c3c2=O)cc1` came in with an RP-LC retention time of 652 s.

For `O=C(CN1C(=O)CCCc2ccccc21)NCc1ccc(F)c(Cl)c1`, the RP-LC retention time amounted to 859 s.

Compound `CCn1cc(CCN2CCC(C(=O)NC3CCCCC3)CC2)c2cccnc21` had an RP-LC retention time of 619 s.

With `O=C1COc2ccccc2N1Cc1nc(-c2ccc3c(c2)OCO3)no1`, the RP-LC retention time is 934 s.

`O=C(c1ccc(OCC2CCCN2C(=O)Cc2ccc(Cl)cc2)cc1)N1CCOCC1` (stereo not given) showed an RP-LC retention time of 811 s.
